The values below are quoted from earlier work in patent publication US20030216871A1, “Calculating a characteristic property of a molecule by correlation analysis” (priority 2001, published 2003).

The subject of data set [1] is human tumor cells in culture. Conditions: C is average IC50 from assays, values from S. P. Gupta, Chem. Review 94, 1519 (1994); cited from earlier work.
For data set [2] the following is noted: experimental logP used as measured property in R matrix; cited from earlier work.
The conditions of data set [3]: organic amines, 25C, I = 0; cited from earlier work.

The logP is a log measure of how a compound divides between an organic and an aqueous phase. `COC12C(COC(N)=O)C3=C(C(=O)C(C)=C(Nc4cccc(I)c4)C3=O)N1CC1NC12` (stereo not drawn) [Compound 11]: in data set [1], the “Experimenter value of Active Concentration (log1/C) Against Human Tumor” value is 8.9. For the same compound, the logP in data set [2] is 2.42.
As to `C#CCNC1=C(C)C(=O)C2=C(C1=O)C(COC(N)=O)C1(OC)C3NC3CN21` (stereo not drawn) [Compound 3], the “Experimenter value of Active Concentration (log1/C) Against Human Tumor” value in data set [1] is 8.46. The logP in data set [2] is listed as 0.24.
As to `CO[C@@]12[C@H](COC(N)=O)C3=C(C(=O)C(C)=C(Nc4ccc5[nH]ccc5c4)C3=O)N1C[C@@H]1N[C@@H]12` [Compound 17], in data set [1], the “Experimenter value of Active Concentration (log1/C) Against Human Tumor” value is recorded as 8.75. For the same compound, the log partition coefficient (logP) in data set [2] is recorded as 2.45.
For `COC12C(COC(N)=O)C3=C(C(=O)C(C)=C(Nc4ccc(N)cc4)C3=O)N1CC1NC12` (stereo not drawn) [Compound 8], the “Experimenter value of Active Concentration (log1/C) Against Human Tumor” value in data set [1] is on record as 7.83. In data set [2], the log partition coefficient (logP) is 0.07.
In the case of `CC1=CCCCC1N` (stereo not drawn) [Compound 96], the pK exper in data set [3] was 10.37.
In the case of `COC12C(COC(N)=O)C3=C(C(=O)C(C)=C(OCCO)C3=O)N1CC1NC12` (stereo not drawn) [Compound 25], in data set [1], the “Experimenter value of Active Concentration (log1/C) Against Human Tumor” value is reported as 8.31. The logP in data set [2] is −1.1.
Turning to `CO[C@@]12[C@H](COC(N)=O)C3=C(C(=O)C(C)=C(N)C3=O)N1C[C@@H]1N[C@@H]12` [Compound 1], the “Experimenter value of Active Concentration (log1/C) Against Human Tumor” value in data set [1] was 7.7.
For the compound `COC12C(COC(N)=O)C3=C(C(=O)C(C)=C(OC4CC4)C3=O)N1CC1NC12` (stereo not drawn) [Compound 21], the “Experimenter value of Active Concentration (log1/C) Against Human Tumor” value in data set [1] is on record as 9.2. Besides, in data set [2], the logP is reported as 0.83.
Take `COCCOCCOC1=C(C)C(=O)C2=C(C1=O)[C@@H](COC(N)=O)[C@@]1(OC)[C@H]3N[C@H]3CN21` [Compound 28]: the “Experimenter value of Active Concentration (log1/C) Against Human Tumor” value in data set [1] is 8.24. Also, the logP in data set [2] is −0.46.
Turning to `CO[C@@]12[C@H](COC(N)=O)C3=C(C(=O)C(C)=C(NCCc4ccccn4)C3=O)N1C[C@@H]1N[C@@H]12` [Compound 6], the “Experimenter value of Active Concentration (log1/C) Against Human Tumor” value in data set [1] was 7.38. Moreover, the lipophilicity (logP) in data set [2] is listed as 1.23.
As to `CO[C@@]12[C@H](COC(N)=O)C3=C(C(=O)C(C)=C(OCCOCCO)C3=O)N1C[C@@H]1N[C@@H]12` [Compound 27], the “Experimenter value of Active Concentration (log1/C) Against Human Tumor” value in data set [1] is listed as 7.32. Moreover, in data set [2], the lipophilicity (logP) is reported as −1.08.
Regarding `COC12C(COC(N)=O)C3=C(C(=O)C(C)=C(Nc4nc(C)cs4)C3=O)N1CC1NC12` (stereo not drawn) [Compound 18], the “Experimenter value of Active Concentration (log1/C) Against Human Tumor” value in data set [1] is on record as 8.69. Besides, the log partition coefficient (logP) in data set [2] was 1.52.
`NC1C=CCCC1` (stereo not drawn) [Compound 95]: the pK exper in data set [3] was 10.42.
For `COC12C(COC(N)=O)C3=C(C(=O)C(C)=C(Nc4ccc(Br)cc4)C3=O)N1CC1NC12` (stereo not drawn) [Compound 10], the “Experimenter value of Active Concentration (log1/C) Against Human Tumor” value in data set [1] is listed as 8.72. In addition, the logP in data set [2] is 2.16.
For the compound `COC12C(COC(N)=O)C3=C(C(=O)C(C)=C(Nc4ccc(O)c(I)c4)C3=O)N1CC1NC12` (stereo not drawn) [Compound 15], in data set [1], the “Experimenter value of Active Concentration (log1/C) Against Human Tumor” value was 7.76. The lipophilicity (logP) in data set [2] is 1.75.
Turning to `COC12C(COC(N)=O)C3=C(C(=O)C(C)=C(Nc4ccc(O)cc4)C3=O)N1CC1NC12` (stereo not drawn) [Compound 13], the “Experimenter value of Active Concentration (log1/C) Against Human Tumor” value in data set [1] was 7.88. In data set [2], the logP is on record as 0.63.
Consider `COC12C(COC(N)=O)C3=C(C(=O)C(C)=C(Nc4ccccc4)C3=O)N1CC1NC12` (stereo not drawn) [Compound 7], for which the “Experimenter value of Active Concentration (log1/C) Against Human Tumor” value in data set [1] is 8.78. Also, in data set [2], the lipophilicity (logP) is 1.3.
For the compound `CO[C@@]12[C@H](COC(N)=O)C3=C(C(=O)C(C)=C(OCC4CC4)C3=O)N1C[C@@H]1N[C@@H]12` [Compound 22], the “Experimenter value of Active Concentration (log1/C) Against Human Tumor” value in data set [1] is listed as 9.43.
As for `COC12C(COC(N)=O)C3=C(C(=O)C(C)=C(OCCOc4ccccc4)C3=O)N1CC1NC12` (stereo not drawn) [Compound 26], the “Experimenter value of Active Concentration (log1/C) Against Human Tumor” value in data set [1] is given as 9.48. Besides, the lipophilicity (logP) in data set [2] is listed as 1.74.
As to `COC12C(COC(N)=O)C3=C(C(=O)C(C)=C(OCc4ccccc4)C3=O)N1CC1NC12` (stereo not drawn) [Compound 24], the “Experimenter value of Active Concentration (log1/C) Against Human Tumor” value in data set [1] is 9.21. Besides, in data set [2], the lipophilicity (logP) is reported as 1.94.
Turning to `COC12C(COC(N)=O)C3=C(C(=O)C(C)=C(Nc4ccc(I)cc4)C3=O)N1CC1NC12` (stereo not drawn) [Compound 12], the “Experimenter value of Active Concentration (log1/C) Against Human Tumor” value in data set [1] is on record as 8.77. In addition, the logP in data set [2] was 2.42.
Turning to `COC12C(COC(N)=O)C3=C(C(=O)C(C)=C(Nc4ccc(O)c([N+](=O)[O-])c4)C3=O)N1CC1NC12` (stereo not drawn) [Compound 16], in data set [1], the “Experimenter value of Active Concentration (log1/C) Against Human Tumor” value is recorded as 7.71. In data set [2], the logP was 0.51.
Take `COC12C(COC(N)=O)C3=C(C(=O)C(C)=C(OCC4CCC4)C3=O)N1CC1NC12` (stereo not drawn) [Compound 23]: the “Experimenter value of Active Concentration (log1/C) Against Human Tumor” value in data set [1] is reported as 9.66. Also, in data set [2], the logP was 2.47.
As for `COC12C(COC(N)=O)C3=C(C(=O)C(C)=C(Nc4cc[nH]n4)C3=O)N1CC1NC12` (stereo not drawn) [Compound 19], the “Experimenter value of Active Concentration (log1/C) Against Human Tumor” value in data set [1] is 7.38. The lipophilicity (logP) in data set [2] is recorded as 0.56.
For `CO[C@@]12[C@H](COC(N)=O)C3=C(C(=O)C(C)=C(Nc4ccc([N+](=O)[O-])cc4)C3=O)N1C[C@@H]1N[C@@H]12` [Compound 14], the “Experimenter value of Active Concentration (log1/C) Against Human Tumor” value in data set [1] was 9.07. In addition, the log partition coefficient (logP) in data set [2] is listed as 1.02.
Regarding `COC1=C(C)C(=O)C2=C(C1=O)[C@@H](COC(N)=O)[C@@]1(OC)[C@H]3N[C@H]3CN21` [Compound 20], the “Experimenter value of Active Concentration (log1/C) Against Human Tumor” value in data set [1] is on record as 9.52. For the same compound, in data set [2], the log partition coefficient (logP) is reported as 0.26.
